One may read the EC50 as the midpoint of the concentration-response curve. For orientation: Emax means the size of the effect at its maximum, as opposed to the concentration needed.

Like-named read-outs stand apart in the source and are kept apart here.

Common to all, as to format: cell-based
One assay concerns the target T1, hGIPR (Homo sapiens, UniProt P48546).
T1 construct: expressed in transfected cells
T1 sequence (P48546 22-466): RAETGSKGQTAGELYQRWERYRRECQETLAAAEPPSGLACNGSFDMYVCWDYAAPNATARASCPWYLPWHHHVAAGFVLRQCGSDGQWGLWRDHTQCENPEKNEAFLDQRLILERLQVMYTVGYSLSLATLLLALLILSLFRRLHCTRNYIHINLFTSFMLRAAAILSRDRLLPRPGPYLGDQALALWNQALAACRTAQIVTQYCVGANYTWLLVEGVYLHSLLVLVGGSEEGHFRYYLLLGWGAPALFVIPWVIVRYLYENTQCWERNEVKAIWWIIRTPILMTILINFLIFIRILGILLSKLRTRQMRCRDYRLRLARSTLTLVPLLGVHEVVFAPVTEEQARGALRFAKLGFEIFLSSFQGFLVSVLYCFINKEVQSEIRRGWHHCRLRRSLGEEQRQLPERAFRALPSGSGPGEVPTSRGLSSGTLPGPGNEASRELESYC
Put plainly: Functional cAMP formation (HTRF) in HEK-293 clonal cells expressing hGIPR, 0.1% bovine casein, without or with 1.0% human serum albumin. The following applies: for EC50: cAMP, 0.1% bovine casein (no human serum albumin), geometric mean. In outline:
(§1)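 Readings of the HTRF 665/620 nm ratio, which falls as cAMP rises, were converted to nM cAMP using a standard curve after 30 min peptide exposure at 37° C.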
(In general: Cyclic AMP is a second messenger, typically raised through Gs and lowered through Gi signalling.)

Another assay deals with T2, hGCGR (Homo sapiens, UniProt P47871).
T2 construct: expressed in transfected cells
T2 sequence (P47871 26-477): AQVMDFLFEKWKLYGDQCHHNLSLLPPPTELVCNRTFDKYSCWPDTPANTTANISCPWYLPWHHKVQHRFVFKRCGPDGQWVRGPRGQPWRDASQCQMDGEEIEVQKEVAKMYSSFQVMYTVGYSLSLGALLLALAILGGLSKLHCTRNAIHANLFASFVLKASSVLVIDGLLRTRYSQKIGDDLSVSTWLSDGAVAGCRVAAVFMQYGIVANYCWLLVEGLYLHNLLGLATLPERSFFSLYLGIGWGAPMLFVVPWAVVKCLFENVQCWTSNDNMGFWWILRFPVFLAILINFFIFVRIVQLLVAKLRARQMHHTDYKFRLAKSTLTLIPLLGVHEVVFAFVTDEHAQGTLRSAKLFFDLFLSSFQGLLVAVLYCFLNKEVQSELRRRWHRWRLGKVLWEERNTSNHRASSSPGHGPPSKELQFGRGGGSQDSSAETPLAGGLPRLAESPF
The assay is described as follows: Functional cAMP formation (HTRF) in HEK-293 clonal cells expressing hGCGR, 0.1% bovine casein, without or with 1.0% human serum albumin. The method in brief: as §1

In another assay the target is hGLP-1R (Homo sapiens, UniProt P43220). The assay is described as follows: Functional cAMP formation (HTRF) in HEK-293 clonal cells expressing hGLP-1R, 0.1% bovine casein, without or with 1.0% human serum albumin. Further details: expressed in transfected cells. The following applies: for EC50: cAMP, 0.1% bovine casein (no human serum albumin), geometric mean; for Emax: percent of maximal response to GLP-1(7-36)NH2, read-out: hGLP-1R Emax, % ± SEM. In outline: as §1
hGLP-1R, sequence (P43220 24-463): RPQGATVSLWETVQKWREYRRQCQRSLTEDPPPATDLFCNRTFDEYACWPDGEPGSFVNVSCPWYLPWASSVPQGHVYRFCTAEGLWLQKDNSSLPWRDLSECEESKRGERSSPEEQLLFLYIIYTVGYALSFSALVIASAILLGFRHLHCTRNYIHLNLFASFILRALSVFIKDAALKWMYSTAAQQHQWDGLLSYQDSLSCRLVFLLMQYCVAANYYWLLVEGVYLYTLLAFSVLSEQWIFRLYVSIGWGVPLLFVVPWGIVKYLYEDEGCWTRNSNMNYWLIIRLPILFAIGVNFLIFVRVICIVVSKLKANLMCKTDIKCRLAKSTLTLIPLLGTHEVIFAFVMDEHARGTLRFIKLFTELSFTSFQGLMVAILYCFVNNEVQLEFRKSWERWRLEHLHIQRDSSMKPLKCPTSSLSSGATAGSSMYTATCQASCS

[1] abbreviates: hGCGR EC50, nM (SEM, n), cAMP, incubated at 37° C., 0.1% bovine casein (no human serum albumin), geometric mean.
Where [2] appears, read: hGLP-1R EC50, nM (SEM, n), incubated at 37° C.

For `CCCCCCCCCCCC(=O)N[C@@H](CCC(=O)NCCOCCOCC(=O)NCCOCCOCC(=O)NCCCC[C@H](NC(=O)[C@H](CCCN)NC(=O)[C@H](CC(=O)O)NC(=O)[C@H](CC(C)C)NC(=O)[C@](C)(CC(C)C)NC(=O)[C@@H](NC(=O)[C@H](CO)NC(=O)[C@H](Cc1ccncc1)NC(=O)[C@H](CC(=O)O)NC(=O)[C@H](CO)NC(=O)[C@@H](NC(=O)[C@](C)(Cc1ccccc1F)NC(=O)[C@@H](NC(=O)CNC(=O)[C@H](CCC(=O)O)NC(=O)C(C)(C)NC(=O)[C@@H](N)Cc1ccc(O)cc1)[C@@H](C)O)[C@@H](C)O)[C@@H](C)CC)C(=O)N[C@@H](C)C(=O)N[C@@H](CCC(N)=O)C(=O)NC(C)(C)C(=O)N[C@@H](CCC(=O)O)C(=O)N[C@@H](Cc1ccccc1)C(=O)N[C@H](C(=O)N[C@@H](CCCCNC(=O)COCCOCCNC(=O)COCCOCCNC(=O)CC[C@H](NC(=O)CCCCCCCCCCC)C(=O)O)C(=O)N[C@@](C)(Cc1ccc(O)cc1)C(=O)N[C@@H](CC(C)C)C(=O)N[C@H](C(=O)N[C@@H](CCC(=O)O)C(=O)NCC(=O)NCC(=O)N1CCC[C@H]1C(=O)N[C@@H](CO)C(=O)N[C@@H](CO)C(=O)NCC(=O)N[C@@H](C)C(=O)N1CCC[C@H]1C(=O)N1CCC[C@H]1C(=O)N1CCC[C@H]1C(=O)N[C@@H](CO)C(N)=O)[C@@H](C)CC)[C@@H](C)CC)C(=O)O` [Example 138], the EC50 on hGIPR (hGIPR EC50, nM (SEM, n), incubated at 37° C.) is 0.0197 nM; on hGCGR (setting [1]), above 9950 nM; on hGLP-1R (setting [2]), 0.267 nM.
As for `CC[C@H](C)[C@H](NC(=O)[C@H](CCCN)NC(=O)[C@H](CC(=O)O)NC(=O)[C@H](CC(C)C)NC(=O)[C@](C)(CC(C)C)NC(=O)[C@@H](NC(=O)C(C)(C)NC(=O)[C@H](Cc1ccncc1)NC(=O)[C@H](CC(=O)O)NC(=O)[C@H](CO)NC(=O)[C@@H](NC(=O)[C@](C)(Cc1ccccc1F)NC(=O)[C@@H](NC(=O)CNC(=O)[C@H](CCC(=O)O)NC(=O)C(C)(C)NC(=O)[C@@H](N)Cc1ccc(O)cc1)[C@@H](C)O)[C@@H](C)O)[C@@H](C)CC)C(=O)N[C@@H](C)C(=O)N[C@@H](CCC(N)=O)C(=O)NC(C)(C)C(=O)N[C@@H](CCC(=O)O)C(=O)N[C@@H](Cc1ccccc1)C(=O)N[C@H](C(=O)N[C@@H](CCCCNC(=O)COCCOCCNC(=O)CC[C@H](NC(=O)CCCCCCCCCCCCC(=O)O)C(=O)O)C(=O)N[C@@](C)(Cc1ccc(O)cc1)C(=O)N[C@@H](CC(C)C)C(=O)N[C@H](C(=O)N[C@@H](CCCCNC(=O)COCCOCCNC(=O)CC[C@H](NC(=O)CCCCCCCCCCCCC(=O)O)C(=O)O)C(=O)NCC(=O)NCC(=O)N1CCC[C@H]1C(=O)N[C@@H](CO)C(=O)N[C@@H](CO)C(=O)NCC(=O)N[C@@H](C)C(=O)N1CCC[C@H]1C(=O)N1CCC[C@H]1C(=O)N1CCC[C@H]1C(=O)N[C@@H](CO)C(N)=O)[C@@H](C)CC)[C@@H](C)CC` [Example 339], the Emax at hGIPR (HEK293, cAMP, 37° C., 0.1% bovine casein and 1.0% human serum albumin, percent of maximal response to GIP(1-42)NH2, read-out: hGIPR Emax, % ± SEM) worked out at 87.3%; at hGLP-1R (HEK293, cAMP, 37° C., 0.1% bovine casein and 1.0% human serum albumin), 115%; on hGLP-1R (HEK293, cAMP, 37° C., 0.1% bovine casein, arithmetic mean), 113%. Moreover, the EC50 is 0.019 nM at hGIPR (37° C., read-out: hGIPR EC50, nM (SEM, n)); above 10100 nM on hGCGR (cAMP, 37° C., 0.1% bovine casein (no human serum albumin), geometric mean, read-out: hGCGR EC50, nM (SEM, n)); above 10100 nM on hGCGR (cAMP, 37° C., 0.1% bovine casein and 1.0% human serum albumin, geometric mean (SEM, n), read-out: hGCGR EC50, nM (SEM, n)); 0.308 nM on hGLP-1R (37° C., read-out: hGLP-1R EC50, nM (SEM, n)).
For `CC[C@H](C)[C@H](NC(=O)[C@H](CC(C)C)NC(=O)[C@](C)(Cc1ccc(O)cc1)NC(=O)[C@@H](CCC(=O)O)NC(=O)[C@@H](NC(=O)[C@H](Cc1ccccc1)NC(=O)[C@H](CCC(=O)O)NC(=O)C(C)(C)NC(=O)[C@H](CCC(N)=O)NC(=O)[C@H](C)NC(=O)[C@H](CCCCNC(=O)COCCOCCNC(=O)COCCOCCNC(=O)CC[C@H](NC(=O)CCCCCCCCCCCCC(=O)O)C(=O)O)NC(=O)[C@H](CCCN)NC(=O)[C@H](CC(=O)O)NC(=O)[C@H](CC(C)C)NC(=O)[C@](C)(CC(C)C)NC(=O)[C@@H](NC(=O)[C@H](CO)NC(=O)[C@H](CC1CCCCC1)NC(=O)[C@H](CC(=O)O)NC(=O)[C@H](CO)NC(=O)[C@@H](NC(=O)[C@](C)(Cc1ccccc1F)NC(=O)[C@@H](NC(=O)CNC(=O)[C@H](CCC(=O)O)NC(=O)C(C)(C)NC(=O)[C@@H](N)Cc1ccc(O)cc1)[C@@H](C)O)[C@@H](C)O)[C@@H](C)CC)[C@@H](C)CC)C(=O)N[C@@H](CCC(=O)O)C(=O)NCC(=O)NCC(=O)N[C@@H](CCCCNC(=O)COCCOCCNC(=O)COCCOCCNC(=O)CC[C@H](NC(=O)CCCCCCCCCCCCC(=O)O)C(=O)O)C(=O)N[C@@H](CO)C(=O)N[C@@H](CO)C(=O)NCC(=O)N[C@@H](C)C(=O)N1CCC[C@H]1C(=O)N1CCC[C@H]1C(=O)N1CCC[C@H]1C(=O)N[C@@H](CO)C(N)=O` [Example 98], the Emax worked out at 95% on hGIPR (HEK293, 0.1% bovine casein and 1.0% human serum albumin, 37° C., percent of maximal response to GIP(1-42)NH2, read-out: hGIPR Emax, % ± SEM); 97.7 ± 2.54% at hGIPR (HEK293, percent of maximal response to GIP(1-42)NH2, 37° C., 0.1% bovine casein, arithmetic mean, read-out: hGIPR Emax, % ± SEM); 97.5% at hGLP-1R (HEK293, 0.1% bovine casein and 1.0% human serum albumin, 37° C.). Besides, the EC50 on hGIPR (incubated at 37° C., read-out: hGIPR EC50, nM (SEM, n)) is 0.0148 nM; at hGCGR (0.1% bovine casein and 1.0% human serum albumin, 37° C., geometric mean, read-out: hGCGR EC50, nM (SEM, n)), above 9950 nM; at hGCGR (cAMP, incubated at 37° C., 0.1% bovine casein (no human serum albumin), geometric mean, read-out: hGCGR EC50, nM (SEM, n)), above 9950 nM; at hGLP-1R (incubated at 37° C., read-out: hGLP-1R EC50, nM (SEM, n)), 0.227 nM.
In the case of `CC[C@H](C)[C@H](NC(=O)[C@H](CC(C)C)NC(=O)[C@](C)(Cc1ccc(O)cc1)NC(=O)[C@H](CCCCNC(=O)COCCOCCNC(=O)COCCOCCNC(=O)CC[C@H](NC(=O)CCCCCCCCCCCCC(=O)O)C(=O)O)NC(=O)[C@@H](NC(=O)[C@H](Cc1ccccc1)NC(=O)[C@H](CCC(=O)O)NC(=O)C(C)(C)NC(=O)[C@H](CCC(N)=O)NC(=O)[C@H](C)NC(=O)[C@H](CCCCNC(=O)COCCOCCNC(=O)COCCOCCNC(=O)CC[C@H](NC(=O)CCCCCCCCCCCCC(=O)O)C(=O)O)NC(=O)[C@H](CCCN)NC(=O)[C@H](CC(=O)O)NC(=O)[C@H](CC(C)C)NC(=O)[C@](C)(CC(C)C)NC(=O)[C@@H](NC(=O)[C@H](CO)NC(=O)C1(NC(=O)[C@H](CC(=O)O)NC(=O)[C@H](CO)NC(=O)[C@@H](NC(=O)[C@](C)(Cc2ccccc2F)NC(=O)[C@@H](NC(=O)CNC(=O)[C@H](CCC(=O)O)NC(=O)C(C)(C)NC(=O)[C@@H](N)Cc2ccc(O)cc2)[C@@H](C)O)[C@@H](C)O)CCCC1)[C@@H](C)CC)[C@@H](C)CC)C(=O)N[C@@H](CCC(=O)O)C(=O)NCC(=O)NCC(=O)N1CCC[C@H]1C(=O)N[C@@H](CO)C(=O)N[C@@H](CO)C(=O)NCC(=O)N[C@@H](C)C(=O)N1CCC[C@H]1C(=O)N1CCC[C@H]1C(=O)N1CCC[C@H]1C(=O)N[C@@H](CO)C(N)=O` [Example 116], the Emax at hGIPR (HEK293, read-out: hGIPR Emax, % ± SEM, percent of maximal response to GIP(1-42)NH2, 37° C., 0.1% bovine casein, arithmetic mean) was found to be 115%. Moreover, the EC50 at hGCGR (setting [1]) is above 9950 nM; at hGLP-1R (setting [2]), 0.197 nM.

Values taken from patent US20230265151A1, “GIP/GLP1 CO-AGONIST COMPOUNDS” (priority 2020, published 2023).
